Tested on: gp96tm transgenic mice
Protocol: Female gp96tm transgenic mice (Proc Natl Acad Sci USA. 2003 December 23; 100(26): 15824-15829) were bred and maintained at the animal center for pharmaceutical research, Seoul National University. We used age-matched, 12-26 weeks old mice in each experimental group. To suppress cell surface gp96 we used GPM1 compound. Dexamethasone and GPM1 were dissolved in 5% DMSO in phosphate-buffered saline (PBS) and control vehicle was 5% DMSO in PBS. Compounds were administered i.p. every 24 h for 2 months (30 mg/kg/day). Three groups of each 9 mice were examined. All procedures were conducted in accordance with the Guide for the Care and Use of Laboratory Animals, published by the Korean National Institute of Health.
Spleen and lymph node cell suspensions were prepared by grindling tissue through sterile mesh and erythrocytes were lysed with RBC lysis buffer (eBioscience, CA). For surface staining, antibodies were fluoresceinisothiocyanate (FITC)-, phycoerythrin (PE)-, PerCP-, or APC-conjugated. Antibodies used were CD4 (RM4-5, H129.12), CD8 (53-6,7), B220 (RA3-6B2), CD11b (M1/70), CD11c (HL3), CD44 (IM7), CD62L (MEL-14), CD69 (H1.2F3), CD25 (PC61.5), IgM (11/41), IgD (11-26C.2a) (BD Pharmingen, CA), MHC class II (M5/114.15.2), Foxp3 (FJK-16s) (eBioscience, CA), and gp96 (Santacruz, Calif.). After staining, cells were washed and analyzed on a FACS can flow cytometer using CellQuest software (BD Bioscience, Mountain View, Calif.).
Kidney tissue sections of gp96tm transgenic mice were fixed in 10% formaldehyde in PBS and dehydrated using an alcohol gradient. After paraffin infiltration, the tissues were sectioned using a microtome, stained with hematoxylin and eosin (H&E) and analyzed by light microscopy. For immunofluorescent staining, kidneys were sectioned with a cryostat. These cryosections were blocked with normal goat serum, stained with FITC-conjugated goat anti-mouse Ig (BD pharmingen, CA), and then observed by fluorescent microscopy.
The present inventors compared the effect of GPM1 with phosphate-buffered saline containing 5% DMSO and dexamethasone (Dex), an immunosuppressant of glucocorticoid family as negative and positive control, respectively. Each group consisted of age-matched nine female mice. […] After 2 month, the present inventors isolated MHC class II^+ splenocytes and lymph nodes from vehicle-, Dex-, and GPM1-treated mice and determined the portion of gp96^+ cells by flow cytometry.

[1] = spleen and lymph nodes, 30 mg/kg

COC(=O)[C@@H](Oc1nc(OC)cc(OC)n1)C(C)C [GPM1, (S)-methyl 2-(4,6-dimethoxypyrimidin-2-yloxy)-3-methylbutanoate]
glomerulonephritis phenotypes and glomerular immunoglobulin deposition (kidney sections): lessened | total cell count (spleen) (mouse, in vivo, 30 mg/kg/day): 4.56 ± 1.44 × 10^6 | adverse effects / death during administration (mouse, in vivo, ip, 30 mg/kg): did not give apparent adverse effects | DNA-specific autoantibody levels (serum): reduced | Nuclear antigen-specific autoantibody levels (serum): reduced | total serum levels of IgG1, IgG2b, IgG3, IgM, and IgA (serum, ELISA): reduced | CD4+CD25+Foxp3+ regulatory T cell population (spleen and lymph nodes): increase | population of CD4+ memory cells and activated CD4+ T cells (spleen and lymph nodes): reduction | B220+ population [1]: reduced | MHC class II+ population [1]: reduced | mature B cell population (B220+IgM+IgD+) (splenocytes): decreased | ICOSL levels in CD11b+CD11c+ myeloid DC (splenocytes, 30 mg/kg): significantly reduced | ICOSL levels in CD11b+CD11c− macrophages (splenocytes, 30 mg/kg): suppressed | ICOSL levels in CD11b−CD11c+ lymphoid DCs (splenocytes, 30 mg/kg): little difference | percentages of gp96+ MHC class II+ cells (splenocytes, after 2 month, 30 mg/kg): ~41% | Proteinuria (urine): reduced

Source: patent US9573907B2, “2, 4-pyrimidine derivatives and use thereof” (SNU R&DB FOUNDATION, priority 2009, dated 2017)
